According to patent US20070049564A1 (Wyeth, priority 2005, published 2007):
≈ marks a conversion by molar mass, not a printed value. Read-outs that look alike come from different tables or passages of the source.

Columns and labels:
[1] = tested on: Staph. aureus Smith; assay: In vitro activity (MIC) against Staph. aureus Smith; assay type: cell-based; conditions: Staphylococcus aureus; Table 8
[2] = Pharmacokinetics in monkey, IV 2 mg/kg and oral 10 mg/kg; assay type: in vivo; conditions: Oral - MONKEY 10 mg/kg
[3] = tested on: Salmonella spp. GC 235; assay: MIC, broth microdilution; conditions: Salmonella, SPP.GC235, Salmonella spp. GC 235
Description: (§1) Antimicrobial susceptibility testing. The in vitro activities of the antibiotics are determined by the broth microdilution method as recommended by the National Committee for Clinical Laboratory Standards (NCCLS) (1). Mueller-Hinton II broth (MHBII)(BBL Cockeysville, Md.) is the medium employed in the testing procedures. Microtiter plates containing serial dilutions of each antimicrobial agent are inoculated with each organism to yield the appropriate density (10^5 CFU/ml) in a 100 μl final volume. The plates are incubated for 18-22 hours at 35° C. in ambient air.
Representative compounds were first incubated in mouse serum for an hour prior to the in vitro testing against a panel of selected gram-positive and gram-negative bacteria strains. All compounds were also pre-incubated in water for an hour prior to testing as control.

[4] = tested on: Salmonella spp. GC 566; assay: MIC, broth microdilution; conditions: Salmonella, SPP.GC566, Salmonella spp. GC 566
Description: as §1
(§2) Presented in Tables I-XIII are representative compounds of Formula I which were evaluated against a panel of 40 selected gram-positive and gram-negative bacteria strains by pre-incubation in water, mouse serum or human serum. Representative compounds were first incubated in mouse serum for an hour prior to the in vitro testing against a panel of selected gram-positive and gram-negative bacteria strains. All compounds were also pre-incubated in water for an hour prior to testing as control. Representative compounds of Formula I were incubated in human serum prior to MIC determination.

[5] = tested on: S. cholerasius GC 1355; assay: MIC, broth microdilution; conditions: S. cholerasius GC 1355
[6] = tested on: E. coli #311; assay: In vivo activity (oral, iv; ED50) against E. coli in mice; conditions: Escherichia coli
Description: . […] Smith and E. Coli #311 in mammals.
Results of the tests (MIC, oral and IV) are list in Table 7.

[7] = tested on: E. coli, tet(A-D), efflux; assay: In vitro activity (MIC), strain groups
Description: as §1
Representative compounds were first incubated in mouse serum for an hour prior to the in vitro testing against a panel of selected gram-positive and gram-negative bacteria strains. All compounds were also pre-incubated in water for an hour prior to testing as control. Representative compounds of Formula I were incubated in human serum prior to MIC determination.

[8] = tested on: E. coli, tet (M,S,O) Tet (M); assay: In vitro activity (MIC), strain groups; conditions: Human Serum
Description: as §1, §2

[9] = tested on: Enterococcus spp.; assay: In vitro activity (MIC), strain groups; parameters: MIC: unit not given beside the values
[10] = tested on: Streptococcus spp.; assay: In vitro activity (MIC), strain groups; parameters: MIC: unit not given beside the values

Compound | MIC [1] [µg/mL] | Cmax [2] | MIC ([3]; Mouse Serum pre-incubation) [µg/mL] | MIC ([3]; Water pre-incubation) [µg/mL] | MIC ([4]; Mouse Serum pre-incubation) [µg/mL] | MIC ([4]; Water pre-incubation) [µg/mL] | MIC ([5]; Mouse Serum pre-incubation) [µg/mL] | MIC ([5]; Water pre-incubation) [µg/mL] | ED50 ([6]; single intravenous dose (SIV), read-out: ED50 E. coli #311 SIV) [mg/kg] | ED50 ([6]; single oral dose (SOD), read-out: ED50 E. coli #311 SOD) [mg/kg] | MIC ([7]; Human Serum) | MIC ([7]; Mouse Serum) | MIC [8] | MIC ([9]; Human Serum) | MIC ([9]; Mouse Serum) | MIC ([9]; water) | MIC ([10]; Human Serum) | MIC ([10]; Mouse Serum) | MIC ([10]; water)
CCCCN(CC(=O)Nc1cc(N(C)C)c2c(c1O)C(=O)C1=C(O)[C@]3(O)C(=O)C(C(N)=O)=C(O)[C@@H](N(C)C)C3CC1C2)C(=O)OCOC(=O)C(C)C (stereo partly drawn) [Example 1, ({[(2-{[(7S,10aS)-9-(aminocarbonyl)-4,7-bis(dimethylamino)-1,8,10a,11-tetrahydroxy-10,12-dioxo-5,5a,6,6a,7,10,10a,12-octahydrotetracen-2-yl]amino}-2-oxoethyl)(butyl)amino]carbonyl}oxy)methyl 2-methylpropanoate] | 4 (≈ 5.48 µM) | no levels detected | 1 (≈ 1.37 µM) | 64 (≈ 87.7 µM) | 2 (≈ 2.74 µM) | 64 (≈ 87.7 µM) | 8 (≈ 11 µM) | > 64 |  |  |  |  |  |  |  |  |  |  | 
CCCN(CC(=O)Nc1cc(N(C)C)c2c(c1O)C(=O)C1=C(O)[C@]3(O)C(=O)C(C(N)=O)=C(O)[C@@H](N(C)C)[C@@H]3C[C@@H]1C2)C(=O)OCOC(=O)c1ccsc1 [Example 27, ({[(2-{[(5aR,6aS,7S,10aS)-9-(aminocarbonyl)-4,7-bis(dimethylamino)-1,8,10a,11-tetrahydroxy-10,12-dioxo-5,5a,6,6a,7,10,10a,12-octahydrotetracen-2-yl]amino}-2-oxoethyl)(propyl)amino]carbonyl}oxy)methyl thiophene-3-carboxylate] | 0.12 (≈ 0.159 µM) |  |  |  |  |  |  |  | > 2 | > 32 | 4-16 | 0.5-1 | 4-8 | 0.5-2 | 0.12-1 | 0.12-1 | 0.12-2 | <0.06-0.12 | <0.06-0.12
